According to patent publication US20240027453A1, “METHOD FOR DETECTION AND QUANTITATIVE MONITORING OF INFECTIONS WITH HERPESVIRUSES” (The Trustees of Princeton University, priority 2020, published 2024):
Where two headings read alike, the source gives them in different places.

System: HCMV
Format: cell-based
Conditions: for UL36 (P16767) protein, numerical value of heatmap FIG. 6C / UL37 (P16778) protein, numerical value of heatmap FIG. 6C / UL122 (P19893) protein, numerical value of heatmap FIG. 6C / UL123 (P13202) protein, numerical value of heatmap FIG. 6C / IRS1 (P09715) protein, numerical value of heatmap FIG. 6C / TRS1 (P09695) protein, numerical value of heatmap FIG. 6C / UL13 (P16755) protein, numerical value of heatmap FIG. 6C: IE
Description: In example herpesvirus PRM assay methods shown herein, cell pellets were lysed in 2% SDS, 100 mM NaCl, 0.5 mM EDTA, 50 mM Tris, pH 8.2, and 50 μg of protein was reduced and alkylated with 25 mM TCEP and 50 mM CAM respectively for 20 min at 70° C. Proteins were then precipitated via methanol chloroform precipitation (Wessel & Flugg, Anal Biochem. 138(1):141-143, 1984), resuspended in 50 mM HEPES, pH 8.2 and digested overnight with trypsin (50:1 protein:enzyme w/w ratio). Digested peptides were desalted by SDB-RPS StageTip as previously described (Lum et al., Cell Syst., 7(6):[…], 2018; Greco et al., Methods Mol Biol 1410:39-63, 2016; Federspiel & Cristea, Methods Mol Biol., 1977:115-143, 2019).
Peptides (1.0 μg on column) were analyzed by LC-MS/MS using a Dionex Ultimate 3000 UHPLC coupled online to an EASYSpray ion source and a Q Exactive HF. Peptides were separated on an EASYSpray C18 column (75 μm×25 cm) heated to 50° C. using a linear gradient of 5% B to 32% B over 60 min at a flow rate of 250 nL/min and were ionized at 1.7 kv. Mobile phase A consisted of 0.1% FA in H2O and mobile phase B consisted of 0.1% FA, 2.9% H2O in ACN.
The PRM method was controlled by a peptide inclusion list with retention time windows of 6 min for selected precursor ions.
The PRM assay was developed and analyzed using the open-source software Skyline (Maclean et al., Bioinformatics 26(7):966-968, 2010). Summed area under the curve of 3-4 transitions per peptide was used for quantitation. Targeted peptides were normalized to host protein loading control peptides. Peptide values for each sample were scaled to the average of each peptide across all runs. The average of multiple peptides was used as the inferred value for the protein measurement when more than one peptide was quantified (Federspiel et al., PLoS Biol. 17(9):e3000437. Doi: 10.1371/journal.pbio.3000437). PRM quantitation data were graphed using the Python Seaborn and Matplotlib libraries.
MRC5 primary human fibroblasts (HFs) (ATCC CCL-171) were used as the model system for HSV-1 and HCMV infections and were cultured in complete growth medium (DMEM supplemented with 10% fetal bovine serum and 1% penicillin-streptomycin antibiotics) at 37° C. and 5% CO2. iSLK.219 cells harboring latent KSHV (a gift from Dr. Britt Glaunsinger, University of California, Berkeley) were grown in complete growth medium supplemented with 500 μg/ml hygromycin (ThermoFisher Scientific, 10687010) at 37° C. and 5% CO2. All cells were used for experiments within a maximum of 10 passages.
Wild type HSV-1 strain 17+ (a gift from Beate Sodeik, Hannover Medical School, Hannover, Germany) was propagated as previously described (Diner et al., 2015). Briefly, PO stocks were generated by electroporating pBAC-HSV-1 into U-2 OS cells. […] In a similar manner, wild type HCMV strain AD169 was produced from BAC electroporation into HFs and working stocks were propagated by infecting HFs at a low level. In both cases, cell-associated virus was released by sonication, combined with supernatant virus, then concentrated by ultracentrifugation (20,000 rpm, 2 hours, 4° C. with SW28 swinging bucket rotor [Beckman Coulter]) over a 10% ficoll (HSV-1) or 20% sorbitol (HCMV) cushion. Virus stock titers were determined by plaque assay for HSV-1 or tissue culture infectious dose (TCID50) for HCMV and infections were performed at a multiplicity of infection (MOI) of 3.
12 hours prior to virus infection or reactivation, cells were treated with either the small molecule drug or DMSO/PBS control at an equivalent volume. […] For infection cycles lasting longer than 24 hours, small molecule drugs were re-added to the cell culture medium every 24 hours. Upon collection, cells were rinsed with PBS, scraped into a microcentrifuge tube, pelleted by centrifugation, and rinsed again with PBS.

Nc1ccn(C[C@@H](CO)OCP(=O)(O)O)c(=O)n1 [CDV, cidofovir]
UL36 (P16767) protein, numerical value of heatmap FIG. 6C (timepoint 48): 0.9304
UL37 (P16778) protein, numerical value of heatmap FIG. 6C (timepoint 48): 0.8657
UL122 (P19893) protein, numerical value of heatmap FIG. 6C (timepoint 48): 0.07563
UL123 (P13202) protein, numerical value of heatmap FIG. 6C (timepoint 48): 0.8515
IRS1 (P09715) protein, numerical value of heatmap FIG. 6C (timepoint 72): 1.017
TRS1 (P09695) protein, numerical value of heatmap FIG. 6C (timepoint 72): 0.9014
UL13 (P16755) protein, numerical value of heatmap FIG. 6C (timepoint 72): 0.8575
UL36 (P16767) protein, numerical value of heatmap FIG. 6C (timepoint 72): 0.8818
UL37 (P16778) protein, numerical value of heatmap FIG. 6C (timepoint 72): 1.038
UL122 (P19893) protein, numerical value of heatmap FIG. 6C (timepoint 72): 0.3738
UL123 (P13202) protein, numerical value of heatmap FIG. 6C (timepoint 72): 0.7924
IRS1 (P09715) protein, numerical value of heatmap FIG. 6C (timepoint 96): 0.9536
TRS1 (P09695) protein, numerical value of heatmap FIG. 6C (timepoint 96): 0.7893
UL13 (P16755) protein, numerical value of heatmap FIG. 6C (timepoint 96): 0.7965
UL36 (P16767) protein, numerical value of heatmap FIG. 6C (timepoint 96): 0.834
UL37 (P16778) protein, numerical value of heatmap FIG. 6C (timepoint 96): 0.936
UL122 (P19893) protein, numerical value of heatmap FIG. 6C (timepoint 96): 0.8676
UL123 (P13202) protein, numerical value of heatmap FIG. 6C (timepoint 96): 0.7732
IRS1 (P09715) protein, numerical value of heatmap FIG. 6C (timepoint 120): 1.003
TRS1 (P09695) protein, numerical value of heatmap FIG. 6C (timepoint 120): 1.103
UL13 (P16755) protein, numerical value of heatmap FIG. 6C (timepoint 120): 1.075
UL36 (P16767) protein, numerical value of heatmap FIG. 6C (timepoint 120): 1.234
UL37 (P16778) protein, numerical value of heatmap FIG. 6C (timepoint 120): 1.212
UL122 (P19893) protein, numerical value of heatmap FIG. 6C (timepoint 120): 1.141
UL123 (P13202) protein, numerical value of heatmap FIG. 6C (timepoint 120): 1.074
MCP (P16729) protein, numerical value of heatmap FIG. 6C (L, timepoint 24): 0.009303
UL25 (P16761) protein, numerical value of heatmap FIG. 6C (L, timepoint 24): 0.02316
UL29 (P16764) protein, numerical value of heatmap FIG. 6C (L, timepoint 24): 0.4352
UL31 (P16848) protein, numerical value of heatmap FIG. 6C (L, timepoint 24): 0.2632
UL43 (P16781) protein, numerical value of heatmap FIG. 6C (L, timepoint 24): 0.06898
UL52 (P16793) protein, numerical value of heatmap FIG. 6C (L, timepoint 24): 0.01391
UL80 (P16753) protein, numerical value of heatmap FIG. 6C (L, timepoint 24): 0.007269
UL82 (P06726) protein, numerical value of heatmap FIG. 6C (L, timepoint 24): 0.2135
UL94 (P16800) protein, numerical value of heatmap FIG. 6C (L, timepoint 24): 0.03193
UL99 (P13200) protein, numerical value of heatmap FIG. 6C (L, timepoint 24): 0.01797
UL103 (P16734) protein, numerical value of heatmap FIG. 6C (L, timepoint 24): 0.236
UL117 (P16770) protein, numerical value of heatmap FIG. 6C (L, timepoint 24): 0.1983
gH (P12824) protein, numerical value of heatmap FIG. 6C (L, timepoint 24): 0.03303
gL (P16832) protein, numerical value of heatmap FIG. 6C (L, timepoint 24): 0.03204
gM (P16733) protein, numerical value of heatmap FIG. 6C (L, timepoint 24): 0.0224
sp|P16809|IR11_HCMVA (P16809) protein, numerical value of heatmap FIG. 6C (L, timepoint 24): 0.04109
CVC1 (P16799) protein, numerical value of heatmap FIG. 6C (L, timepoint 48): 0.1142
MCP (P16729) protein, numerical value of heatmap FIG. 6C (L, timepoint 48): 0.01444
TRM2 (P16792) protein, numerical value of heatmap FIG. 6C (L, timepoint 48): 0.0613
UL22A (P16845) protein, numerical value of heatmap FIG. 6C (L, timepoint 48): 0.07025
UL25 (P16761) protein, numerical value of heatmap FIG. 6C (L, timepoint 48): 0.06426
UL29 (P16764) protein, numerical value of heatmap FIG. 6C (L, timepoint 48): 0.6305
UL31 (P16848) protein, numerical value of heatmap FIG. 6C (L, timepoint 48): 0.2379
UL43 (P16781) protein, numerical value of heatmap FIG. 6C (L, timepoint 48): 0.09529
UL52 (P16793) protein, numerical value of heatmap FIG. 6C (L, timepoint 48): 0.08671
UL80 (P16753) protein, numerical value of heatmap FIG. 6C (L, timepoint 48): 0.04081
